What is called IC50 is the concentration needed to halve the response being measured. A lower IC50 goes with higher potency.

Drawing on patent US20100197757A1, “OXINDOLES AS KINASE INHIBITORS” (priority 2005, published 2010), this text covers IC50 for nine compounds.

The subject of the assay is MEK. In words: IC50 column of the compound table in Example 1 (assay not given).

With `COc1ccc(/C(N)=C2/C(=O)Nc3ccccc32)cc1` [No. o, 3-[Amino-(4-methoxy-phenyl)methylene]-1,3-dihydro-indol-2-one], the IC50 was 3100 nM.

Turning to `N/C(=C1\C(=O)Nc2ccccc21)c1ccc(I)cc1` [No. d, 3-[Amino-(4-iodo-phenyl)-methylene]-1,3-dihydro-indol-2-one], the IC50 amounted to 2700 nM.

For the compound `N/C(=C1\C(=O)Nc2ccccc21)c1ccc(O)cc1` [No. c, 3-[Amino-(4-hydroxy-phenyl)-methylene]-1,3-dihydro-indol-2-one], the IC50 is 940 nM.

On to `N/C(=C1\C(=O)Nc2cc(Cl)ccc21)c1ccccc1` [No. a, 3-(Amino-phenyl-methylene)-6-chloro-1,3-dihydro-indol-2-one], for which half-maximal inhibition (IC50) required 1100 nM.

Turning to `N/C(=C1\C(=O)Nc2ccc(Cl)cc21)c1ccccc1` [No. b, 3-(Amino-phenyl-methylene)-5-chloro-1,3-dihydro-indol-2-one], half-maximal inhibition (IC50) required 260 nM.

`N/C(=C1\C(=O)Nc2ccc(Br)cc21)c1cccc(I)c1` [No. n, 3-(Amino-(3-iodo-phenyl)-methylene)-5-bromo-1,3-dihydro-indol-2-one] gave an IC50 of 3400 nM.

Compound `N/C(=C1\C(=O)Nc2cc(Cl)ccc21)c1ccc(I)cc1` [No. e, 3-(Amino-(4-iodo-phenyl)-methylene)-6-chloro-1,3-dihydro-indol-2-one] yielded an IC50 of 4100 nM.

The compound `COc1ccc(/C(N)=C2/C(=O)Nc3cc(Cl)ccc32)cc1` [No. p, 3-(Amino-(4-methoxy-phenyl)-methylene)-6-chloro-1,3-dihydro-indol-2-one] returned an IC50 of 8700 nM.

Turning to `N/C(=C1\C(=O)Nc2ccc(Cl)cc21)c1ccc(I)cc1` [No. f, 3-(Amino-(4-iodo-phenyl)-methylene)-5-chloro-1,3-dihydro-indol-2-one], the midpoint of inhibition, the IC50, lay at 1100 nM.
